PubChem BioAssay (NCI)
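GI50 marks 50% less growth. At the TGI there is no net growth.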

Key:
Test in all cases: NCI-60 cell line screen, 384-well format
[1] = test system: HT29 colon
[2] = test system: A549 NSCLC
[3] = test system: CAKI-1 renal
[4] = test system: SK-MEL-28 melanoma
[5] = test system: NCI-H322M lung
[6] = test system: COLO 205 colon
[7] = test system: LOX IMVI melanoma
[8] = test system: MDA-MB-231 breast
[9] = test system: DU-145 prostate
[10] = test system: MALME-3M melanoma
[11] = test system: UACC-257 melanoma
[12] = test system: OVCAR-3 ovarian
[13] = test system: 786-0 renal
[14] = test system: IGROV1 ovarian
[15] = test system: SF-539 CNS
[16] = test system: TK-10 renal
[17] = test system: SK-MEL-5 melanoma
[18] = test system: UACC-62 melanoma
[19] = test system: HCT-116 colon
[20] = test system: ACHN renal
[21] = test system: MCF7 breast
[22] = test system: KM12 colon
[23] = test system: A498 renal
[24] = test system: HOP-92 NSCLC
[25] = test system: HS 578T breast
[26] = test system: BT-549 breast
[27] = test system: OVCAR-5 ovarian
[28] = test system: UO-31 renal
[29] = test system: EKVX NSCLC
[30] = test system: MOLT-4 leukemia
[31] = test system: SN12C renal
[32] = test system: SF-268 CNS
[33] = test system: HL-60(TB) leukemia
[34] = test system: HOP-62 NSCLC
[35] = test system: RPMI-8226 leukemia
[36] = test system: SR leukemia
[37] = test system: HCT-15 colon
[38] = test system: T-47D breast
[39] = test system: NCI-H522 lung
[40] = test system: MDA-MB-468 breast
[41] = test system: SF-295 CNS
[42] = test system: HCC-2998 colon
[43] = test system: RXF 393 renal
[44] = test system: M14 melanoma

Compound: CCOc1cc2ncc(C#N)c(Nc3ccc(OCc4ccccn4)c(Cl)c3)c2cc1NC(=O)/C=C/CN(C)C
- GI50 [1]: 1230 nM
- TGI [1]: 2490 nM
- GI50 [2]: 312 nM
- TGI [2]: 1740 nM
- GI50 [3]: 98.7 nM
- TGI [3]: 759 nM
- GI50 [4]: > 100000 nM
- TGI [4]: > 100000 nM
- GI50 [5]: 14.9 nM
- TGI [5]: 53 nM
- GI50 [6]: 3670 nM
- TGI [6]: > 100000 nM
- GI50 [7]: 969 nM
- TGI [7]: 2150 nM
- GI50 [8]: 754 nM
- TGI [8]: 2000 nM
- GI50 [9]: 143 nM
- TGI [9]: 1420 nM
- GI50 [10]: 188 nM
- TGI [10]: 808 nM
- GI50 [11]: 2150 nM
- TGI [11]: > 100000 nM
- GI50 [12]: 148 nM
- TGI [12]: > 100000 nM
- GI50 [13]: 251 nM
- TGI [13]: 1230 nM
- GI50 [14]: 25.9 nM
- TGI [14]: 320 nM
- GI50 [15]: 2170 nM
- TGI [15]: > 100000 nM
- GI50 [16]: 71 nM
- TGI [16]: > 100000 nM
- GI50 [17]: 183 nM
- TGI [17]: 474 nM
- GI50 [18]: 405 nM
- TGI [18]: > 100000 nM
- GI50 [19]: 473 nM
- TGI [19]: 1670 nM
- GI50 [20]: 61.1 nM
- TGI [20]: 1220 nM
- GI50 [21]: 881 nM
- TGI [21]: 2100 nM
- GI50 [22]: 1200 nM
- TGI [22]: 2450 nM
- GI50 [23]: 89.6 nM
- TGI [23]: 1220 nM
- GI50 [24]: 351 nM
- TGI [24]: 1620 nM
- GI50 [25]: 220 nM
- TGI [25]: 848 nM
- GI50 [26]: 396 nM
- TGI [26]: 1520 nM
- GI50 [27]: 864 nM
- TGI [27]: > 100000 nM
- GI50 [28]: 267 nM
- TGI [28]: > 100000 nM
- GI50 [29]: 41.8 nM
- TGI [29]: 1240 nM
- GI50 [30]: 207 nM
- TGI [30]: 511 nM
- GI50 [31]: 140 nM
- TGI [31]: > 100000 nM
- GI50 [32]: 311 nM
- TGI [32]: > 100000 nM
- GI50 [33]: 197 nM
- TGI [33]: 639 nM
- GI50 [34]: 1130 nM
- TGI [34]: 2350 nM
- GI50 [35]: 242 nM
- TGI [35]: 515 nM
- GI50 [36]: 530 nM
- TGI [36]: 876 nM
- GI50 [37]: 349 nM
- TGI [37]: 1500 nM
- GI50 [38]: < 10 nM
- TGI [38]: > 100000 nM
- GI50 [39]: < 10 nM
- TGI [39]: 63.3 nM
- GI50 [40]: < 10 nM
- TGI [40]: 29 nM
- GI50 [41]: > 100000 nM
- TGI [41]: > 100000 nM
- GI50 [42]: 1260 nM
- TGI [42]: 2520 nM
- GI50 [43]: 143 nM
- TGI [43]: 598 nM
- GI50 [44]: 276 nM
- TGI [44]: 1180 nM
